ChEMBL document CHEMBL1158282, “Iridoid Molluscicidal Compounds from Apodytes dimidiata” (1996)
Values after ≈ are worked out from the molar mass of the structure shown.

Test system: Bulinus africanus
Experiment: Molluscicidal activity against Bulinus africanus
Type: functional
Details: for LC50: Bulinus africanus, read-out: LD50 (the source's name)

| SMILES | LD90 [ppm] | LC50 [µg/mL] |
| --- | --- | --- |
| COC(=O)C1=CO[C@@H](O)[C@@H]2C(COC(C)=O)=CC[C@H]12 | 39.4 | 21.7 (≈ 81 µM) |
| COC(=O)C1=CO[C@@H](O)[C@@H]2C(CO)=CC[C@H]12 [GENIPIN] | 32.57 | 25.3 (≈ 112 µM) |
